# Reference: patent US10214542B2, “Modified macrocyclic compounds” (BAYER PHARMA AKTIENGESELLSCHAFT, priority 2015, dated 2019)
# pIC50: −log10 of the molar value. Marks after values point to notes of the source that are not given here.
# Tests used:
# [1] = target: T1, human PTEFb (CDK9/Cyclin T1) (Homo sapiens, UniProt P50750); test: Surface Plasmon Resonance PTEFb (Method 8); format: binding; details: 37° C., experimental parameters E
# T1 construct: purchased ProQinase, Freiburg, Germany
# CDK9/CycT1 = target: T2, CDK9/CycT1 (Homo sapiens, UniProt P50750); test: CDK9/CycT1 high ATP kinase assay (TR-FRET, Method 1b); format: biochemical; details: 2 mM ATP
# T2 construct: Recombinant full-length His-tagged human CDK9 and CycT1; His; purchased Invitrogen PV4131; host or cells: insect cells
# Procedure: 1b. CDK9/CycT1 High ATP Kinase Assay
# CDK9/CycT1-inhibitory activity of compounds of the present invention at a high ATP concentration after preincubation of enzyme and test compounds was quantified employing the CDK9/CycT1 TR-FRET assay as described in the following paragraphs.
# Recombinant full-length His-tagged human CDK9 and CycT1, expressed in insect cells and purified by Ni-NTA affinity chromatography, were purchase from Invitrogen (Cat. No PV4131). As substrate for the kinase reaction biotinylated peptide biotin-Ttds-YISPLKSPYKISEG (C-terminus in amid form) was used which can be purchased e.g. from the company JERINI peptide technologies (Berlin, Germany).
# For the assay 50 nl of a 100 fold concentrated solution of the test compound in DMSO was pipetted into a black low volume 384 well microtiter plate (Greiner Bio-One, Frickenhausen, Germany), 2 μl of a solution of CDK9/CycT1 in aqueous assay buffer [50 mM Tris/HCl pH 8.0, 10 mM MgCl2, 1.0 mM dithiothreitol, 0.1 mM sodium ortho-vanadate, 0.01% (v/v) Nonidet-P40 (Sigma)] were added and the mixture was incubated for 15 min at 22° C. to allow pre-binding of the test compounds to the enzyme before the start of the kinase reaction. […] The concentration of CDK9/CycT1 was adjusted depending of the activity of the enzyme lot and was chosen appropriate to have the assay in the linear range, typical concentrations were in the range of 0.5 μg/mL. The reaction was stopped by the addition of 5 μl of a solution of TR-FRET detection reagents (0.2 μM streptavidine-XL665 [Cisbio Bioassays, Codolet, France] and 1 nM anti-RB(pSer807/pSer811)-antibody from BD Pharmingen [#558389] and 1.2 nM LANCE EU-W1024 labeled anti-mouse IgG antibody [Perkin-Elmer, product no. AD0077]) in an aqueous EDTA-solution (100 mM EDTA, 0.2% (w/v) bovine serum albumin in 100 mM HEPES pH 7.5).
# The resulting mixture was incubated 1 h at 22° C. to allow the formation of complex between the phosphorylated biotinylated peptide and the detection reagents. Subsequently the amount of phosphorylated substrate was evaluated by measurement of the resonance energy transfer from the Eu-chelate to the streptavidine-XL. Therefore, the fluorescence emissions at 620 nm and 665 nm after excitation at 350 nm was measured in a HTRF reader, e.g. a Rubystar (BMG Labtechnologies, Offenburg, Germany) or a Viewlux (Perkin-Elmer). The ratio of the emissions at 665 nm and at […] was taken as the measure for the amount of phosphorylated substrate. The data were normalised (enzyme reaction without inhibitor=0% inhibition, all other assay components but no enzym=100% inhibition).
# CDK2/CycE = target: T3, CDK2/CycE (Homo sapiens, UniProt P24941); test: CDK2/CycE high ATP kinase assay (TR-FRET, Method 2b); format: biochemical; details: 2 mM ATP
# T3 construct: GST; purchased ProQinase GmbH (Freiburg, Germany); host or cells: insect cells (Sf9)
# Procedure: 2b. CDK2/CycE High ATP Kinase Assay:
# CDK2/CycE-inhibitory activity of compounds of the present invention at 2 mM adenosine-tri-phosphate (ATP) was quantified employing the CDK2/CycE TR-FRET (TR-FRET=Time Resolved Fluorescence Resonance Energy Transfer) assay as described in the following paragraphs.
# Recombinant fusion proteins of GST and human CDK2 and of GST and human CycE, expressed in insect cells (Sf9) and purified by Glutathion-Sepharose affinity chromatography, were purchase from ProQinase GmbH (Freiburg, Germany). As substrate for the kinase reaction biotinylated peptide biotin-Ttds-YISPLKSPYKISEG (C-terminus in amid form) was used which can be purchased e.g. from the company JERINI peptide technologies (Berlin, Germany).
# For the assay 50 nl of a 100 fold concentrated solution of the test compound in DMSO was pipetted into a black low volume 384 well microtiter plate (Greiner Bio-One, Frickenhausen, Germany), 2 μl of a solution of CDK2/CycE in aqueous assay buffer [50 mM Tris/HCl pH 8.0, 10 mM MgCl2, 1.0 mM dithiothreitol, 0.1 mM sodium ortho-vanadate, 0.01% (v/v) Nonidet-P40 (Sigma)] were added and the mixture was incubated for 15 min at 22° C. to allow pre-binding of the test compounds to the enzyme before the start of the kinase reaction. Then the kinase reaction was started by the addition of 3 μl of a solution ATP (3.33 mM=>final conc. in the 5 μl assay volume is 2 mM) and substrate (1.25 μM=>final conc. in the 5 μl assay volume is 0.75 μM) in assay buffer and the resulting mixture was incubated for a reaction time of 25 min at 22° C. The concentration of CDK2/CycE was adjusted depending of the activity of the enzyme lot and was chosen appropriate to have the assay in the linear range, typical concentrations were in the range of 15 ng/ml. The reaction was stopped by the addition of 5 μl of a solution of TR-FRET detection reagents (0.2 μM streptavidine-XL665 [Cisbio Bioassays, Codolet, France] and 1 nM anti-RB(pSer807/pSer811)-antibody from BD Pharmingen [#558389] and 1.2 nM LANCE EU-W1024 labeled anti-mouse IgG antibody [Perkin-Elmer, product no. AD0077, as an alternative a Terbium-cryptate-labeled anti-mouse IgG antibody from Cisbio Bioassays can be used]) in an aqueous EDTA-solution (100 mM EDTA, 0.2% (w/v) bovine serum albumin in 100 mM HEPES pH 7.5).
# The resulting mixture was incubated 1 h at 22° C. to allow the formation of complex between the phosphorylated biotinylated peptide and the detection reagents. Subsequently the amount of phosphorylated substrate was evaluated by measurement of the resonance energy transfer from the Eu-chelate to the streptavidine-XL. Therefore, the fluorescence emissions at 620 nm and 665 nm after excitation at 350 nm were measured in a TR-FRET reader, e.g. a Rubystar (BMG Labtechnologies, Offenburg, Germany) or a Viewlux (Perkin-Elmer). The ratio of the emissions at 665 nm and at […] was taken as the measure for the amount of phosphorylated substrate. The data were normalised (enzyme reaction without inhibitor=0% inhibition, all other assay components but no enzym=100% inhibition).
# [2] = in vivo; cited from earlier work
# T2 sequence (P50750 whole entry): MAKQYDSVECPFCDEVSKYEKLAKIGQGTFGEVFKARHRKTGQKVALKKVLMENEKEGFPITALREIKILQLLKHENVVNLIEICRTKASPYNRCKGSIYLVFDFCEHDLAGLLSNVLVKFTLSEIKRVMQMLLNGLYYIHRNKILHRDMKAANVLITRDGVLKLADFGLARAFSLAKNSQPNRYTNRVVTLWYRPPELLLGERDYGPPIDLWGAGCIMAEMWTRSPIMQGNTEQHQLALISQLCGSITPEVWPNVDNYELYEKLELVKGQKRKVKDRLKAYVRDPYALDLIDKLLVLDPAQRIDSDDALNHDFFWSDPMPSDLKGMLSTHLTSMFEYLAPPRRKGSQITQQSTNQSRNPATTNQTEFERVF
# T2 sequence (O60563 whole entry partner): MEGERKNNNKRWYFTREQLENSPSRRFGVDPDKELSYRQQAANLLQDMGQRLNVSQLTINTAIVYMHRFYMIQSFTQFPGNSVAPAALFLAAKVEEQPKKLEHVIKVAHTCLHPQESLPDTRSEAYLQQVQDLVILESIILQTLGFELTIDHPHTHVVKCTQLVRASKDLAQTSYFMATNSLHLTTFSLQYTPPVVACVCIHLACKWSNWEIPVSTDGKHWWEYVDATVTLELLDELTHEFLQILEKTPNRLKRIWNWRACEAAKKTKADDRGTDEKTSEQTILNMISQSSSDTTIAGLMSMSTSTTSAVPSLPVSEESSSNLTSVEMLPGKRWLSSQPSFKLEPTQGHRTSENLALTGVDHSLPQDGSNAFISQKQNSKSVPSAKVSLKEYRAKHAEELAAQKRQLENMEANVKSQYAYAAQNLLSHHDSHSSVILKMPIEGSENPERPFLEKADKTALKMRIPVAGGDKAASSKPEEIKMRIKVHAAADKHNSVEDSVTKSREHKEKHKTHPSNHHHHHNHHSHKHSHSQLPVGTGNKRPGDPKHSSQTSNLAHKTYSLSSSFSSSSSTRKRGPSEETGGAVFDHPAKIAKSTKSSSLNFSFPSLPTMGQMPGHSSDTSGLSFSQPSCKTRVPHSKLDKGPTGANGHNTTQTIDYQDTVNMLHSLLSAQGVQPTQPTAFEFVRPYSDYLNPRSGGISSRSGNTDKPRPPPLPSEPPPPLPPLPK
# T1 sequence (P50750 whole entry): as the sequence (P50750 whole entry) above
# T1 sequence (O60563 whole entry partner): as the sequence (O60563 whole entry partner) above
SMILES,Target resident time ([1]; 1/koff),koff ([1]; read-out: Dissociation rate constant koff) [s⁻¹],pIC50 (CDK9/CycT1; Method 1b),Selectivity high ATP CDK9 over high ATP CDK2: IC50 (high ATP CDK2)/IC50 (high ATP CDK9) (CDK9/CycT1; Methods 1b and 2b),pIC50 (CDK2/CycE),duration of protection against bronchospasms [2]
"CS(=N)(=O)Cc1cc2cc(c1)Nc1ncc(F)c(n1)-c1ccc(F)cc1OCCCCN2 (racemic) [Example 25, (rac)-16,20-difluoro-9-[(S-methylsulfonimidoyl)methyl]-3,4,5,6-tetrahydro-2H,12H-13,17-(azeno)-11,7-(metheno)-1,6,12,14-benzoxatriazacyclononadecine]",14.7* min,0.00113,8.48,224,6.13,–
C[N+]1(C)[C@@H]2C[C@@H](OC(=O)C(O)(c3cccs3)c3cccs3)C[C@H]1[C@@H]1O[C@@H]12 [tiotropium],–,–,–,–,–,more than 6 hours
